Test results published in ChEMBL document CHEMBL1138844, “Synthesis and biological evaluation of 1-aryl-4,5-dihydro-1H-pyrazolo[3,4-d]pyrimidin-4-one inhibitors of cyclin-dependent kinases” (J Med Chem, 2004).

What was measured:
[1] = target: Cyclin-dependent kinase 1/cyclin B (Homo sapiens, UniProt P06493); test: Inhibition of Cyclin-dependent kinase 1-cyclin B; format: protein-complex assay
[2] = target: Cyclin-dependent kinase 4/cyclin D1 (Homo sapiens, UniProt P11802); test: Inhibition of Cyclin-dependent kinase 4-cyclin D1; format: protein-complex assay
HCT-116 = test: Inhibition of human colon carcinoma cell (HCT116) proliferation; format: functional, cell-based
[3] = target: Cyclin-dependent kinase 2/cyclin E (Homo sapiens, UniProt P24941)
Description: Inhibition of Cyclin-dependent kinase 2-cyclin E

Sequence of Cyclin-dependent kinase 4/cyclin D1 (P11802 whole entry): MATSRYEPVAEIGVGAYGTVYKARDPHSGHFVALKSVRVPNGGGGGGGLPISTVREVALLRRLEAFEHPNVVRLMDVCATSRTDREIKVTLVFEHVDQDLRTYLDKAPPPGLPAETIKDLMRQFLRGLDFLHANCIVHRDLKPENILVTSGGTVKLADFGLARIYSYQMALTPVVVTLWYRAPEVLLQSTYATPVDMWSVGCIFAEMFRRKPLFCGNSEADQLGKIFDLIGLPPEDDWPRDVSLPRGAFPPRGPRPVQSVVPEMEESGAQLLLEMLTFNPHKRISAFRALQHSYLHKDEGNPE
Sequence of Cyclin-dependent kinase 4/cyclin D1 (P24385 whole entry, further chain): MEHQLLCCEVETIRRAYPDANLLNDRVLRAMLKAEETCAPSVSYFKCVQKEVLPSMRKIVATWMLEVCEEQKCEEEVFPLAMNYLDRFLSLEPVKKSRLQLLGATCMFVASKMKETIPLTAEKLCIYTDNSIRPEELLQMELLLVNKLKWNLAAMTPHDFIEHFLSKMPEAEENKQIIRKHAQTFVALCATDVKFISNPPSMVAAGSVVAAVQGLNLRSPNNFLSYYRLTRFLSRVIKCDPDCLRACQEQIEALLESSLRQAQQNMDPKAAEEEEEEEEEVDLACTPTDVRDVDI

SMILES | IC50 [1] [µM] | IC50 [2] [µM] | IC50 (HCT-116) [µM] | IC50 [3] [µM]
CCc1nn(-c2c(Cl)cc(Cl)cc2Cl)c2nc(Cc3ccccc3)[nH]c(=O)c12 | 0.26 | 3 | 0.6 | 0.02
CSc1nn(-c2ccc(Cl)cc2C)c2nc(C)[nH]c(=O)c12 | – | 74 | – | –
CSc1nn(-c2ccccc2)c2nc(C)[nH]c(=O)c12 | – | > 180 | – | –
CCc1nn(-c2c(Cl)cc(Cl)cc2Cl)c2nc(Cc3cccc(N)c3)[nH]c(=O)c12 | 0.27 | 2.9 | 0.47 | 0.04
C=Cc1nc2c(c(CC)nn2-c2c(Cl)cc(Cl)cc2Cl)c(=O)[nH]1 | – | 2.9 | – | 0.31
CSc1nn(-c2ccc(C)cc2C)c2nc(C)[nH]c(=O)c12 | – | 48 | – | –
CCc1nn(-c2c(Cl)cc(Cl)cc2Cl)c2nc(Cc3ccc(OC)c(O)c3)[nH]c(=O)c12 | 0.2 | 0.02 | 0.13 | 0.01
CCc1nn(-c2c(Cl)cc(Cl)cc2Cl)c2nc(Cc3ccc(C)c(O)c3)[nH]c(=O)c12 | 0.52 | 0.08 | 0.67 | 0.02
CSc1nn(-c2cccc(Cl)c2Cl)c2nc(C)[nH]c(=O)c12 | – | 50 | – | –
CCc1nn(-c2c(Cl)cc(Cl)cc2Cl)c2nc(Cc3ccc(Br)cc3)[nH]c(=O)c12 | – | > 1.2 | 2.3 | 0.05
CCc1nn(-c2c(Cl)cc(Cl)cc2Cl)c2nc(Cc3cccc(O)c3)[nH]c(=O)c12 | 0.19 | 0.06 | 0.4 | 0.01
CCc1nn(-c2c(Cl)cc(Cl)cc2Cl)c2nc(Cc3cccc(N)c3C)[nH]c(=O)c12 | > 0.27 | > 2.2 | 0.19 | 0.01
CCc1nn(-c2c(Cl)cc(Cl)cc2Cl)c2nc(Cc3ccc(O)c(C)c3)[nH]c(=O)c12 | > 0.27 | > 2.2 | 0.5 | 0.02
CCc1nn(-c2c(Cl)cc(Cl)cc2Cl)c2nc(Cc3ccncc3)[nH]c(=O)c12 | 0.49 | 3 | 0.55 | 0.03
CCc1nn(-c2c(Cl)cc(Cl)cc2Cl)c2nc(Cc3ccc(O)c(O)c3)[nH]c(=O)c12 | 0.24 | 0.04 | 0.72 | –
Cc1nc2c(c(C)nn2-c2c(Cl)cc(Cl)cc2Cl)c(=O)[nH]1 | – | 3.5 | – | –
CCc1nn(-c2c(Cl)cc(Cl)cc2Cl)c2nc(Cc3ccccc3OC)[nH]c(=O)c12 | – | > 22 | 3.4 | 0.1
CSc1nn(Cc2ccccc2)c2nc(C)[nH]c(=O)c12 | – | > 150 | – | –
CSc1nn(-c2c(Cl)cc(Cl)cc2Cl)c2nc(CCCO)[nH]c(=O)c12 | – | 13 | – | 0.76
CSc1nn(-c2c(Cl)cc(Cl)cc2Cl)c2nc(-c3ccco3)[nH]c(=O)c12 | – | 36 | – | –
Cc1nc2c(c(Cc3ccccc3)nn2-c2c(Cl)cc(Cl)cc2Cl)c(=O)[nH]1 | – | > 48 | – | –

SMILES | IC50 [1] [µM] | IC50 [2] [µM] | IC50 (HCT-116) [µM] | IC50 [3] [µM]
Cc1nc2c(c(CCO)nn2-c2c(Cl)cc(Cl)cc2Cl)c(=O)[nH]1 | – | > 140 | – | –
CCc1nn(-c2c(Cl)cc(Cl)cc2Cl)c2nc(Cc3ccc(O)cc3)[nH]c(=O)c12 | 0.1 | 2 | 0.09 | 0.01
CCc1nn(-c2c(Cl)cc(Cl)cc2Cl)c2nc(CCc3ccccc3)[nH]c(=O)c12 | – | 7.1 | – | 1.8
CSc1nn(C(C)(C)C)c2nc(C)[nH]c(=O)c12 | – | > 100 | – | –
CCc1nn(-c2c(Cl)cc(Cl)cc2Cl)c2nc(C)n(C)c(=O)c12 | – | > 27 | – | > 27
Cc1nc2c(c(-c3ccccc3)nn2-c2c(Cl)cc(Cl)cc2Cl)c(=O)[nH]1 | – | > 120 | – | –
CSc1nn(-c2ccc(Cl)cc2Cl)c2nc(C)[nH]c(=O)c12 | – | 37 | – | –
CCc1nn(-c2c(Cl)cc(Cl)cc2Cl)c2nc(CCSC)[nH]c(=O)c12 | – | 6.5 | – | –
CCCc1nn(-c2c(Cl)cc(Cl)cc2Cl)c2nc(C)[nH]c(=O)c12 | – | 5.7 | – | –
Cc1nc2c(c(CO)nn2-c2c(Cl)cc(Cl)cc2Cl)c(=O)[nH]1 | – | 7 | – | –
COC(=O)c1nc2c(c(SC)nn2-c2c(Cl)cc(Cl)cc2Cl)c(=O)[nH]1 | – | 240 | – | –
CSc1nn(-c2ccccn2)c2nc(C)[nH]c(=O)c12 | – | > 180 | – | –
CCc1nn(-c2c(Cl)cc(Cl)cc2Cl)c2nc(Cc3ccc(O)c(OC)c3)[nH]c(=O)c12 | 0.86 | 6.6 | 0.32 | 0.07
CSc1nn(-c2cc(C(F)(F)F)ccc2Cl)c2nc(C)[nH]c(=O)c12 | – | 15 | – | –
CSc1nn(-c2c(Cl)cc(Cl)cc2Cl)c2nc(C(C)O)[nH]c(=O)c12 (stereo unspecified) | – | 27 | – | –
Cc1nc2c(cnn2-c2c(Cl)cc(Cl)cc2Cl)c(=O)[nH]1 | – | 12 | – | –
CSc1nn(-c2c(Cl)cc(Cl)cc2Cl)c2nc(CCN(C)C(=O)OC(C)(C)C)[nH]c(=O)c12 | – | > 48 | – | 19
CCc1nn(-c2c(Cl)cc(Cl)cc2Cl)c2nc(C)nc(N)c12 | – | > 140 | – | –
CCc1nn(-c2c(Cl)cc(Cl)cc2Cl)c2nc(Cc3ccc(OC)c(OC)c3)[nH]c(=O)c12 | > 0.51 | 4.5 | 0.61 | 0.11
CCc1nn(-c2c(Cl)cc(Cl)cc2Cl)c2nc(Cc3ccccc3O)[nH]c(=O)c12 | – | > 11 | 5.5 | 0.12
CSc1nn(-c2c(C)cc(Cl)cc2Cl)c2nc(C)[nH]c(=O)c12 | – | 11 | – | –

SMILES | IC50 [1] [µM] | IC50 [2] [µM] | IC50 (HCT-116) [µM] | IC50 [3] [µM]
CCCc1nc2c(c(SC)nn2-c2c(Cl)cc(Cl)cc2Cl)c(=O)[nH]1 | – | 9.1 | – | –
CSc1nn(-c2c(Cl)cc(Cl)cc2Cl)c2nc(C(F)(F)F)[nH]c(=O)c12 | – | > 116 | – | –
CCc1nc2c(c(CC)nn2-c2c(Cl)cc(Cl)cc2Cl)c(=O)[nH]1 | – | 0.94 | – | 0.09
CSc1nn(-c2ccccc2Cl)c2nc(C)[nH]c(=O)c12 | – | 19 | – | –
CCc1nn(-c2c(Cl)cc(Cl)cc2Cl)c2nc(CCCCO)[nH]c(=O)c12 | – | 2.4 | – | 0.25
CCc1nn(-c2c(Cl)cc(Cl)cc2Cl)c2nc(-c3ccc(OC)c(OC)c3)[nH]c(=O)c12 | – | > 21 | – | 0.58
CSc1nn(CCO)c2nc(C)[nH]c(=O)c12 | – | > 210 | – | –
CSc1nn(-c2c(Cl)cc(Cl)cc2C(F)(F)F)c2nc(C)[nH]c(=O)c12 | – | 29 | – | –
CCc1nn(-c2c(Cl)cc(Cl)cc2Cl)c2nc(Cc3ccccc3CO)[nH]c(=O)c12 | > 0.27 | 2.9 | 0.49 | 0.02
CCOC(=O)Cc1cccc(Cc2nc3c(c(CC)nn3-c3c(Cl)cc(Cl)cc3Cl)c(=O)[nH]2)c1 | – | > 1.9 | – | 0.15
CSc1nn(-c2c(Cl)cc(C(F)(F)F)cc2Cl)c2nc(C)[nH]c(=O)c12 | – | 8 | – | –
CCc1nn(-c2c(Cl)cc(Cl)cc2Cl)c2nc(Cc3ccc(C)c(OC)c3)[nH]c(=O)c12 | – | 2.1 | 9.5 | 0.11
Cc1nc2c(c(C#N)nn2-c2c(Cl)cc(Cl)cc2Cl)c(=O)[nH]1 | – | > 28 | – | –
CSc1nn(-c2c(Cl)cc(Cl)cc2Cl)c2nc[nH]c(=O)c12 | – | 95 | – | 2.7
CSc1nn(-c2cc(C)ccc2C)c2nc(C)[nH]c(=O)c12 | – | 25 | – | –
Cc1nc2c(c(C(F)(F)F)nn2-c2c(Cl)cc(Cl)cc2Cl)c(=O)[nH]1 | – | 3.1 | – | –
CSc1nn(-c2c(Cl)cc(Cl)cc2Cl)c2nc(C3CC3)[nH]c(=O)c12 | – | 4.3 | – | 0.4
CCc1nn(-c2c(Cl)cc(Cl)cc2Cl)c2nc(Cc3cccc(NS(C)(=O)=O)c3)[nH]c(=O)c12 | – | 0.16 | 0.47 | 0.26
CSc1nn(-c2cc(Cl)ccc2Cl)c2nc(C)[nH]c(=O)c12 | – | 23 | – | –
CSc1nn(-c2c(C)cc(C)cc2C)c2nc(C)[nH]c(=O)c12 | – | 37 | – | –
CSc1nn(-c2c(Cl)cc(Cl)cc2Cl)c2nc(CF)[nH]c(=O)c12 | – | 44 | – | 1.6

SMILES | IC50 [1] [µM] | IC50 [2] [µM] | IC50 (HCT-116) [µM] | IC50 [3] [µM]
CCc1nn(-c2c(Cl)cc(Cl)cc2Cl)c2nc(Cc3ccccn3)[nH]c(=O)c12 | – | 9.7 | 3.7 | 0.23
CSc1nn(-c2c(Cl)cc(Cl)cc2Cl)c2nc(CN(C)C(=O)OC(C)(C)C)[nH]c(=O)c12 | – | > 50 | – | –
CCc1nn(-c2c(Cl)cc(Cl)cc2Cl)c2c1S(=O)(=O)NC(C)=N2 | – | > 51 | – | > 13
CSc1nn(-c2c(Cl)cccc2Cl)c2nc(C)[nH]c(=O)c12 | – | 5.3 | – | –
CNCc1nc(O)c2c(SC)nn(-c3c(Cl)cc(Cl)cc3Cl)c2n1 | – | > 57 | – | –
CCCCn1nc(SC)c2c(=O)[nH]c(C)nc21 | – | > 200 | – | –
CCc1nn(-c2c(Cl)cc(Cl)cc2Cl)c2nc(C)[nH]c(=O)c12 | – | 1.1 | – | 0.14
CSc1nn(-c2c(Cl)cc(Cl)cc2Cl)c2nc(C(C)C)[nH]c(=O)c12 | – | 10 | – | –
CCc1nn(-c2c(Cl)cc(Cl)cc2Cl)c2nc(CC(C)C)[nH]c(=O)c12 | – | > 6.3 | – | 0.11
CSc1nn(-c2ccc(C(C)C)cc2)c2nc(C)[nH]c(=O)c12 | – | > 160 | – | –
COc1ccccc1-n1nc(SC)c2c(=O)[nH]c(C)nc21 | – | > 83 | – | –
CSc1nn(-c2ccc(Cl)cc2)c2nc(C)[nH]c(=O)c12 | – | > 160 | – | –
CCc1nn(-c2c(Cl)cc(Cl)cc2Cl)c2nc(CCc3cnc[nH]3)[nH]c(=O)c12 | – | 3.6 | – | 0.62
CSc1nn(-c2cccc(Cl)c2)c2nc(C)[nH]c(=O)c12 | – | > 160 | – | –
CSc1nn(-c2c(Cl)cc(Cl)cc2Cl)c2nc(Cc3ccccc3)[nH]c(=O)c12 | – | 11 | – | 0.44
CSCc1nc2c(c(SC)nn2-c2c(Cl)cc(Cl)cc2Cl)c(=O)[nH]1 | – | 15 | – | 0.31
CCCCc1nn(-c2c(Cl)cc(Cl)cc2Cl)c2nc(C)[nH]c(=O)c12 | – | > 6.5 | – | –
CSc1nn(-c2c(Cl)cc(Cl)cc2Cl)c2nc(Cc3cccs3)[nH]c(=O)c12 | – | 20 | – | –
CNCCc1nc2c(c(SC)nn2-c2c(Cl)cc(Cl)cc2Cl)c(=O)[nH]1 | – | 28 | – | 6.6
CSc1nn(-c2c(Cl)cc(Cl)cc2Cl)c2nc(CCCCCO)[nH]c(=O)c12 | – | 10 | – | 0.42
CCc1nn(-c2c(Cl)cc(Cl)cc2Cl)c2nc(Cc3cc(O)cc(O)c3)[nH]c(=O)c12 | – | 0.05 | 0.3 | 0.02
